Assay results from patent publication US11498903B2 (BRISTOL-MYERS SQUIBB COMPANY, priority 2017, dated 2022).
Read-outs that look alike come from different tables or passages of the source. Each block holds one compound with its values, some of them ahead of it.

Molecular target: T1, human APJ receptor (Homo sapiens, UniProt P35414)
T1 construct: expressed in transfected cells
T1 sequence (P35414 1-380): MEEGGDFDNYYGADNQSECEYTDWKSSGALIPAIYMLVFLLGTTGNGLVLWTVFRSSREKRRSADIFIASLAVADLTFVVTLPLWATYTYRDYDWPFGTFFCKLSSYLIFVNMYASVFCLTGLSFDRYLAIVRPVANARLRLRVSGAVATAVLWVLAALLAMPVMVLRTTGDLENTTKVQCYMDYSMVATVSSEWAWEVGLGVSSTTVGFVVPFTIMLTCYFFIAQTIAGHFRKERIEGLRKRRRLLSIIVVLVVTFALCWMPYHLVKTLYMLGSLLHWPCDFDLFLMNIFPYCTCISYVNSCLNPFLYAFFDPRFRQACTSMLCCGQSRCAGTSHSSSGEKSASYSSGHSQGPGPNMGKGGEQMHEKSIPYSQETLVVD
Experiment: Intracellular cAMP accumulation assay (APJ hcAMP, HTRF)
Type: cell-based
Settings: HEK293 cells stably expressing human APJ receptor
Outline: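 HEK293 cells stably expressing human APJ, 5,000/well, incubated 30 min at room temperature with compound plus […] and 2 μM forskolin. cAMP read by HTRF against a cAMP standard curve; EC50 from variable-slope sigmoidal fit, Ymax as % of (Pyr1)apelin-13 inhibition.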

[1] = Table 1, inhibition of forskolin-mediated cAMP production, read-out: APJ hcAMP EC50
[2] = Table 2, read-out: APJ cAMP Human EC50

Compound: CCC[C@@H](NC(=O)c1ccc(-c2cc(Cl)ccc2-c2nc3cc(C#N)ccc3[nH]2)c(C(=O)O)c1)c1ccccc1 [Example 28, 5′-chloro-2′-(5-cyano-1H-1,3-benzodiazol-2-yl)-4-{[(1R)-1-phenylbutyl]carbamoyl}-[1,1′-biphenyl]-2-carboxylic acid]
EC50 [1]: 10 to 100 nM | EC50 [2]: 10 to 100 nM

Compound: CCC[C@@H](NC(=O)c1ccc(-c2cc(Cl)ccc2-c2nc3ncncc3[nH]2)c(C(=O)O)c1)c1ccccc1 [Example 29, 5′-chloro-4-{[(1R)-1-phenylbutyl]carbamoyl}-2′-(7H-purin-8-yl)-[1,1′-biphenyl]-2-carboxylic acid]
EC50 [1]: 10 to 100 nM | EC50 [2]: 10 to 100 nM

Compound: CCC[C@@H](NC(=O)c1ccc(-c2cc(Cl)ccc2-c2nc3nc(C)ccc3[nH]2)c(C(=O)O)c1)c1ccccc1 [Example 30, 5′-chloro-2′-{5-methyl-1H-imidazo[4,5-b]pyridin-2-yl}-4-{[(1R)-1-phenylbutyl]carbamoyl}-[1,1′-biphenyl]-2-carboxylic acid]
EC50 [1]: 10 to 100 nM | EC50 [2]: 10 to 100 nM

Compound: CCC[C@@H](NC(=O)c1ccc(-c2cc(Cl)ccc2-c2nc3ncccc3[nH]2)c(C(=O)O)c1)c1ccccc1 [Example 31, 5′-chloro-2′-{1H-imidazo[4,5-b]pyridin-2-yl}-4-{[(1R)-1-phenylbutyl]carbamoyl}-[1,1′-biphenyl]-2-carboxylic acid]
EC50 [1]: 10 to 100 nM | EC50 [2]: 10 to 100 nM

Compound: CCC[C@@H](NC(=O)c1ccc(-c2cc(C)ccc2-c2nc3ccccc3[nH]2)c(C(=O)O)c1)c1ccccc1 [Example 32, 2′-(1H-1,3-benzodiazol-2-yl)-5′-methyl-4-{[(1R)-1-phenylbutyl]carbamoyl}-[1,1′-biphenyl]-2-carboxylic acid]
EC50 [1]: < 10 nM | EC50 [2]: < 10 nM

Compound: CCC[C@@H](NC(=O)c1ccc(-c2cc(F)ccc2-c2nc3ccccc3[nH]2)c(C(=O)O)c1)c1ccccc1 [Example 33, 2′-(1H-1,3-benzodiazol-2-yl)-5′-fluoro-4-{[(1R)-1-phenylbutyl]carbamoyl}-[1,1′-biphenyl]-2-carboxylic acid]
EC50 [1]: < 10 nM | EC50 [2]: < 10 nM

Compound: CCC[C@@H](NC(=O)c1ccc(-c2ccc(F)cc2-c2nc3ccccc3[nH]2)c(C(=O)O)c1)c1ccccc1 [Example 34, 2′-(1H-1,3-benzodiazol-2-yl)-4′-fluoro-4-{[(1R)-1-phenylbutyl]carbamoyl}-[1,1′-biphenyl]-2-carboxylic acid]
EC50 [1]: < 10 nM | EC50 [2]: < 10 nM

Compound: CCC[C@@H](NC(=O)c1ccc(-c2cc(C)ccc2-c2nc3cc(OC)ccc3[nH]2)c(C(=O)O)c1)c1ccccc1 [Example 35, 2′-(5-methoxy-1H-1,3-benzodiazol-2-yl)-5′-methyl-4-{[(1R)-1-phenylbutyl]carbamoyl}-[1,1′-biphenyl]-2-carboxylic acid]
EC50 [1]: < 10 nM | EC50 [2]: < 10 nM

Compound: CCC[C@@H](NC(=O)c1ccc(-c2cc(F)ccc2-c2nc3cc(OC)ccc3[nH]2)c(C(=O)O)c1)c1ccccc1 [Example 36, 5′-fluoro-2′-(5-methoxy-1H-1,3-benzodiazol-2-yl)-4-{[(1R)-1-phenylbutyl]carbamoyl}-[1,1′-biphenyl]-2-carboxylic acid]
EC50 [1]: < 10 nM | EC50 [2]: < 10 nM

Compound: CCC[C@@H](NC(=O)c1ccc(-c2ccc(F)cc2-c2nc3cc(OC)ccc3[nH]2)c(C(=O)O)c1)c1ccccc1 [Example 37, 4′-fluoro-2′-(5-methoxy-1H-1,3-benzodiazol-2-yl)-4-{[(1R)-1-phenylbutyl]carbamoyl}-[1,1′-biphenyl]-2-carboxylic acid]
EC50 [1]: < 10 nM | EC50 [2]: < 10 nM

Compound: CCC[C@@H](NC(=O)c1ccc(-c2cc(C)ccc2-c2nc3cc(C(C)(C)C)ccc3[nH]2)c(C(=O)O)c1)c1ccccc1 [Example 38, 2′-(5-tert-butyl-1H-1,3-benzodiazol-2-yl)-5′-methyl-4-{[(1R)-1-phenylbutyl]carbamoyl}-[1,1-biphenyl]-2-carboxylic acid]
EC50 [1]: < 10 nM | EC50 [2]: < 10 nM

Compound: CCC[C@@H](NC(=O)c1ccc(-c2cc(F)ccc2-c2nc3cc(C(C)(C)C)ccc3[nH]2)c(C(=O)O)c1)c1ccccc1 [Example 39, 2′-(5-tert-butyl-1H-1,3-benzodiazol-2-yl)-5′-fluoro-4-{[(1R)-1-phenylbutyl]carbamoyl}-[1,1′-biphenyl]-2-carboxylic acid]
EC50 [1]: 10 to 100 nM | EC50 [2]: 10 to 100 nM

Compound: CCC[C@@H](NC(=O)c1ccc(-c2ccc(F)cc2-c2nc3cc(C(C)(C)C)ccc3[nH]2)c(C(=O)O)c1)c1ccccc1 [Example 40, 2′-(5-tert-butyl-1H-1,3-benzodiazol-2-yl)-4′-fluoro-4-{[(1R)-1-phenylbutyl]carbamoyl}-[1,1′-biphenyl]-2-carboxylic acid]
EC50 [1]: 10 to 100 nM | EC50 [2]: 10 to 100 nM

Compound: CCC[C@@H](NC(=O)c1ccc(-c2cc(Cl)ccc2-c2nc3ccccc3[nH]2)c(C(=O)NOC)c1)c1ccccc1 [Example 41, 2′-(1H-1,3-benzodiazol-2-yl)-5′-chloro-N2-methoxy-N4-[(1R)-1-phenylbutyl]-[1,1′-biphenyl]-2,4-dicarboxamide]
EC50 [1]: 10 to 100 nM | EC50 [2]: 10 to 100 nM

More lines, now with the values ahead:

EC50 [1]: 10 to 100 nM | EC50 [2]: 10 to 100 nM
Compound: CCC[C@@H](NC(=O)c1ccc(-c2cc(Cl)ccc2-c2nc3ccccc3[nH]2)c(C(=O)NO)c1)c1ccccc1 [Example 42, 2′-(1H-1,3-benzodiazol-2-yl)-5′-chloro-N2-hydroxy-N4-[(1R)-1-phenylbutyl]-[1,1′-biphenyl]-2,4-dicarboxamide]

EC50 [1]: 101 to 500 nM | EC50 [2]: 101 to 500 nM
Compound: CCC[C@@H](NC(=O)c1ccc(-c2cc(Cl)ccc2-c2nc3ccccc3[nH]2)c(C(=O)OC)c1)c1ccccc1 [Example 43, methyl 2′-(1H-1,3-benzodiazol-2-yl)-5′-chloro-4-{[(1R)-1-phenylbutyl]carbamoyl}-[1,1′-biphenyl]-2-carboxylate]

EC50 [1]: 10 to 100 nM | EC50 [2]: 10 to 100 nM
Compound: CCC[C@@H](NC(=O)c1ccc(-c2cc(Cl)ccc2-c2nc3ccccc3[nH]2)c(C(=O)NS(C)(=O)=O)c1)c1ccccc1 [Example 44, 2′-(1H-1,3-benzodiazol-2-yl)-5′-chloro-N2-methanesulfonyl-N4-[(1R)-1-phenylbutyl]-[1,1′-biphenyl]-2,4-dicarboxamide]

EC50 [1]: 101 to 500 nM | EC50 [2]: 101 to 500 nM
Compound: CCC[C@@H](NC(=O)c1ccc(-c2cc(Cl)ccc2-c2nc3ccccc3[nH]2)c(C(=O)NS(=O)(=O)c2ccc(Cl)cc2)c1)c1ccccc1 [Example 45, 2′-(1H-1,3-benzodiazol-2-yl)-5′-chloro-N2-(4-chlorobenzenesulfonyl)-N4-[(1R)-1-phenylbutyl]-[1,1′-biphenyl]-2,4-dicarboxamide]

EC50 [1]: < 10 nM | EC50 [2]: < 10 nM
Compound: CCC[C@@H](NC(=O)c1ccc(-c2cc(Cl)ccc2-c2nc3cc(Cl)ccc3[nH]2)c(C(=O)O)c1)c1ccccc1 [Example 47, 5′-chloro-2′-(5-chloro-1H-1,3-benzodiazol-2-yl)-4-{[(1R)-1-phenylbutyl]carbamoyl}-[1,1′-biphenyl]-2-carboxylicacid]

EC50 [1]: < 10 nM | EC50 [2]: < 10 nM
Compound: CCC[C@@H](NC(=O)c1ccc(-c2cc(Cl)ccc2-c2nc3cc(C(C)C)ccc3[nH]2)c(C(=O)O)c1)c1ccccc1 [Example 48, 5′-chloro-4-{[(1R)-1-phenylbutyl]carbamoyl}-2′-[5-(propan-2-yl)-1H-1,3-benzodiazol-2-yl]-[1,1′-biphenyl]-2-carboxylic acid]

EC50 [1]: 10 to 100 nM | EC50 [2]: 10 to 100 nM
Compound: CCC[C@@H](NC(=O)c1ccc(-c2cc(Cl)ccc2-c2nc3cccc(C)c3[nH]2)c(C(=O)O)c1)c1ccccc1 [Example 49, 5′-chloro-2,-(4-methyl-1H-1,3-benzodiazol-2-yl)-4-{[(1R)-1-phenylbutyl]carbamoyl}-[1,1′-biphenyl]-2-carboxylic acid]

EC50 [1]: 10 to 100 nM | EC50 [2]: 10 to 100 nM
Compound: CCC[C@@H](NC(=O)c1ccc(-c2cc(Cl)ccc2-c2nc(C)c(C)[nH]2)c(C(=O)O)c1)c1ccccc1 [Example 50, 5′-chloro-2′-(4,5-dimethyl-1H-imidazol-2-yl)-4-{[(1R)-1-phenylbutyl]carbamoyl}-[1,1′-biphenyl]-2-carboxylic acid]

EC50 [1]: < 10 nM | EC50 [2]: < 10 nM
Compound: CCC[C@@H](NC(=O)c1ccc(-c2cc(C(F)(F)F)ccc2-c2nc3ccccc3[nH]2)c(C(=O)O)c1)c1ccccc1 [Example 51, 2′-(1H-1,3-benzodiazol-2-yl)-4-{[(1R)-1-phenylbutyl]carbamoyl}-5′-(trifluoromethyl)-[1,1′-biphenyl]-2-carboxylic acid]

EC50 [1]: < 10 nM | EC50 [2]: < 10 nM
Compound: CCC[C@@H](NC(=O)c1ccc(-c2ccccc2-c2nc3ccccc3[nH]2)c(C(=O)O)c1)c1ccccc1 [Example 52, 2′-(1H-1,3-benzodiazol-2-yl)-4-{[(1R)-1-phenylbutyl]carbamoyl}-[1,1′-biphenyl]-2-carboxylic acid]

EC50 [1]: < 10 nM | EC50 [2]: < 10 nM
Compound: CCC[C@@H](NC(=O)c1ccc(-c2cc(OC)ccc2-c2nc3ccccc3[nH]2)c(C(=O)O)c1)c1ccccc1 [Example 53, 2′-(1H-1,3-benzodiazol-2-yl)-5′-methoxy-4-{[(1R)-1-phenylbutyl]carbamoyl}-[1,1′-biphenyl]-2-carboxylic acid]

EC50 [1]: 10 to 100 nM | EC50 [2]: 10 to 100 nM
Compound: CCC[C@@H](NC(=O)c1ccc(-c2ccc(Cl)cc2-c2nc3ccccc3[nH]2)c(C(=O)O)c1)c1ccccc1 [Example 54, 2′-(1H-1,3-benzodiazol-2-yl)-4′-chloro-4-{[(1R)-1-phenylbutyl]carbamoyl}-[1,1′-biphenyl]-2-carboxylic acid]
